# Legend:
# [1] = tested on: serum bile acids; test: Time to onset of activity of LUM001 on postprandial serum total bile acids (SBA) in beagle dogs; assay type: in vivo; details: dog SBA model, oral, 1 hour after feeding
# Experimental: LUM001 was dissolved in water at concentrations that required the administration of 0.2 ml/kg of solution. Solutions were placed into gelatin capsules, Torpac Inc., size 13 Batch 594, East Hanover N.J., and administered orally.
# Male beagle dogs were obtained from Covance Research Products, Cumberland Va. or Marshall Farms USA, Inc., North Rose N.Y. A total of 20 dogs, 1 to 5 years old, 6.8 to 15.6 kg body weight, were used in these experiments. The dogs were conditioned to a 12 hour light/dark cycle and maintained on a feeding restriction of 1 hour per day access to food (Richman Standard Certified Canine Diet #5007, PMI Nutrition, Inc., St. Louis Mo.) from 7 to 8 AM. They were trained to eat a special meal promptly within 20 minutes when presented (1 can. 397 g, Evanger's 100% Beef for Dogs, Evanger's Dog and Cat Food Co., Inc., Wheeling Ill., mixed with 50 g of sharp cheddar cheese.).
# SBA was measured by an enzymatic assay. SBA values are expressed as […] of total bile acids/ml of serum.
# To estimate the details of this plateau, 6 dogs were given a test meal and blood samples for SBA measurement were collected at −30, 0, 30, 60, 65, 70, 80, 90, 120, 180, 240, 360, 480, 720, 1410 and 1440 minutes from the time of feeding. Any remaining food was removed 20 min after it was first presented to the dogs. […]
# [2] = tested on: Hepatic Cholesterol 7α-hydroxylase; test: Cholesterol 7-α hydroxylase activity assay, hamster liver microsomes; assay type: in vivo, golden Syrian hamster; details: 28 days
# Description: Male golden Syrian hamsters (126-147 gm) were obtained from Charles Rivers Laboratories and were single housed in a constant temperature environment with alternating 12-hour light and dark cycles. Hamsters were fed Teklad 7001 rodent meal chow at libitum for two weeks before the experimental studies began and switched to Teklad 7001 rodent meal chow supplemented with 0.24% cholesterol on day one of the 28-day experiment. Water was continuously available to the animals. Hamsters were assigned to groups in a manner that normalized each group by pretreatment body weights. SD-5613 was dissolved in an aqueous solution of 0.2% (w/v) Tween 80 and administered Q.D. by intragastric gavage between 9 a.m. and 10 a.m. each morning using a syringe fitted with a flexible feeding tube. Blood samples were collected after 14- and 28-day treatment periods by orbital sinus and cardiac puncture, respectively. Hamsters were anesthetized but not fasted prior to blood collections. Fecal samples were collected during a 48-hour period at the end of days 14 and 28 (i.e. days 13-14 and 27-28). Hamsters were sacrificed using carbon dioxide asphyxiation to obtain the following tissue samples: liver, kidneys, colon and cecum.
# Homogenates of three gram liver tissue samples were prepared in 25 ml homogenization buffer [0.1 M potassium phosphate buffer, pH 7.2, containing 0.1 M sucrose, 50 mM KCl, 50 mM NaF, 5 mM ethylene glycol-bis(β-aminoethyl ether)-N,N,N′,N′-tetraacetic acid (EGTA), 1 mM EDTA, 3 mM dithiothreitol (DTIT), and 1 mM phenylmethylsulfonyl fluoride (PMSF)]. A microsomal fraction was prepared by centrifugation at 10,000×g for ten minutes. The supernatant was subjected to centrifugation at 105,000×g for two hours. The microsomal fraction was resuspended in a 0.1 M Na tetrapyrophosphate buffer (pH 10), with 50 mM NaF, and 1 mM EDTA, and subjected to centrifugation for one hour at 105,000×g. The microsomal fraction was resuspended in the homogenization buffer, and assayed for protein content by Coomassie Protein Plus Assay reagent.
# Liver microsomes (1 mg) or 7-α-hydroxycholesterol standard solutions were preincubated for five minutes at 37° C. in a rocking water bath with 500 μl 5× buffer, 1.7 ml water, and 50 μl 0.1% (w/v) cholesterol as substrate in excess. The 5× buffer consists of 0.42 M Na2HPO4, 0.25 mM NaF, 0.08 M KH2PO4, 5 mM EDTA and 10 mM DTT. The reaction tubes were incubated at 37° C. in a rocking water bath throughout the remainder of the assay protocol, with cessation of rocking only for the period of time needed to add solutions. After the preincubation period, 250 μl of 10 mM NADPH was added and incubated for 5 minutes to allow enzymatic conversion of the cholesterol substrate to 7-α-hydroxycholesterol by endogenous 7-α-hydroxylase. The reaction was stopped by addition of 75 μl of 20% sodium cholate. After four minutes, 25 μl of 100 μM 20-α-hydroxycholesterol was added to each tube as an internal recovery standard. The tubes were allowed to rock briefly in the water bath to mix, then 40 μl of 25 U/ml cholesterol oxidase was added and the tubes were incubated for ten minutes to convert 7-α-hydroxycholesterol and 20-α-hydroxycholesterol to their ketone forms, 7-α-hydroxycholesten-3-one and 20-α-hydroxycholesten-3-one. After the enzymatic reactions were completed, the ketone products were isolated by four sequential extractions in 20, 10, 10 and 10 ml petroleum ether, respectively. The collected volumes were evaporated to dryness under a flow of nitrogen gas between each extraction step using a heat block set at 50° C. The final dried samples were resuspended in 125 μl mobile phase solution consisting of 70:30 acetonitrile/methanol for analysis by reversed phase HPLC. Chromatography was performed on a 4.6×250 mm Beckman Ultrosphere ODS reverse phase column in mobile phase solution. […]
compound,measurement,setting,value
CCCCC1(CCCC)CS(=O)(=O)c2ccc(N(C)C)cc2[C@@H](c2ccc(OCc3ccc(C[N+]45CCN(CC4)CC5)cc3)cc2)[C@H]1O [LUM001],threshold dose,[1],0.05 mg/kg
same,Hepatic Cholesterol 7α-hydroxylase,[2]; 5 mg/kg/day,50.9 ± 4.8 pmol/mg-port/min
same,"Hepatic Cholesterol 7α-hydroxylase, % change from vehicle group",[2]; 5 mg/kg/day,(+52) %
same,Hepatic Cholesterol 7α-hydroxylase,[2]; 15 mg/kg/day,56.5 ± 4.5 pmol/mg-port/min
same,"Hepatic Cholesterol 7α-hydroxylase, % change from vehicle group",[2]; 15 mg/kg/day,(+69) %
same,Hepatic Cholesterol 7α-hydroxylase,[2]; 50 mg/kg/day,63.8 ± 5.6 pmol/mg-port/min
same,"Hepatic Cholesterol 7α-hydroxylase, % change from vehicle group",[2]; 50 mg/kg/day,(+90) %

# — US20140275090A1, “BILE ACID RECYCLING INHIBITORS FOR TREATMENT OF PRIMARY SCLEROSING CHOLANGITIS AND INFLAMMATORY BOWEL DISEASE” (Lumena Pharmaceuticals, Inc., priority 2013, published 2014)
